Patent publication US10807992B2, “Single enantiomer antiparasitic compounds” (priority 2017, dated 2020)
Like-named read-outs stand apart in the source and are kept apart here.

Test: Dog PK study of C1 (S) enantiomer, single oral dose, plasma and whole blood by chiral LC-MS/MS
Format: in vivo, beagle dogs
Settings: for AUC(0-t): read-out: NCA AUC0-last; for AUC(0-inf): read-out: NCA AUC0-∞
Description: This study assessed the in vivo pharmacokinetic (PK) behavior of a single oral dose of the C1 (S) enantiomer in beagle dogs (Charles River study# 20104466). Solutions of C1 (S) enantiomer were dosed by oral gavage (10mg/kg) to a group of dogs (n=3). Blood samples were collected pre-dose and at 0.25, 0.5, 1, 2, 4, and 8 hours following dosing on Day 1. Blood samples were also collected on Days1, 2, 3, 5, 7, 10, 14, 17, 21, 25, 28, 32, 35, 39, 43, and 45. A portion of each whole blood sample was processed to plasma. Test article concentrations in plasma and whole blood were determined using liquid chromatography tandem mass spectrometry (LC-MS/MS).
Calibration curves were constructed by spiking racemic 1-[6-[5-(3,5-dichloro-4-fluoro-phenyl)-5-(trifluoromethyl)-4H-isothiazol-3-yl]spiro[1H-isobenzofuran-3,3′-azetidine]-1′-yl]-3,3,3-trifluoro-propan-1-one into aliquots of blank K2EDTA beagle plasma or whole blood (Bioreclamation, Westbury, N.Y.) at the following nominal concentrations: 5, 10, 20, 50, 100, 200, 500, 1000, 2000, 5000, and 10000 ng/mL. Quality control samples (QCs) were prepared in the same manner at the following concentrations: 15, 30, 150, 800, 1600, 4000, and 8000 ng/mL.
Samples (double blanks, blank+IS, blank+drug, standards, QC samples, and study samples) were extracted using a protein precipitation procedure. A 50 μL aliquot of plasma or blood was transferred into a deep well 96-well plate. To the sample aliquot, 250 μL of an internal standard (IS) solution for plasma or 300 μL for blood was added. The internal standard solution contained Afoxolaner at 50 ng/mL in methanol. For double blanks and blank+drug, neat methanol instead of IS was added. The 96-well plate was capped, shaken for ten minutes, and centrifuged at 5000 relative centrifugal force (RCF) for 10 minutes at 15° C. A 150-200 μL aliquot of the resulting supernatant of each sample was transferred to a clean, 96-well microtiter plate. The microtiter plate was capped and subjected to LC-MS/MS analysis.
The LC-MS/MS system consisted of a Leap autosampler, an Agilent 1100 series liquid chromatography pump, and a SciexAPI4000 mass spectrometer operated in triple quadrupole mode. A ChiralPak IA column (4.6×150mm, 5μm particle, Supplier Daicel PN 80324)at room temperature was used with water as mobile phase A and neat acetonitrile as mobile phase B. The LC gradient, MS parameters, and gas parameters are shown in the tables 2-4, respectively.
The mass spectrometer (MS) was operated in negative Turbo IonSpray™ mode with Multiple Reaction Monitoring (MRM).
Following LC-MS/MS analysis, peak area ratios were calculated (analyte peak area divided by internal standard peak area). Standard curves were created by generating least squares fitting plots of peak area ratio versus nominal concentration. Sample concentrations were calculated from the results of the least squares fits.
Cmax and Tmax are the observed maximum drug concentration and the time at which the maximum concentration occurs, respectively. Area under the curve (AUC) was calculated using the linear trapezoid method. To calculate half-lives (t1/2), a least squares regression was performed on a log concentration (C) versus time (t) plot (semi-log plot) to obtain the slope, k. The t1/2 is equal to 0.693/k. The t1/2 was calculated using data points in the elimination phase. For oral PK, Cl/F=Dose/AUC.
In this report, PK calculations were normalized to the measured dose solution concentrations. Note that in all figures and tables below, the nominal dose is listed.

[1] = dog, plasma, Beagle, oral 10 mg/kg, read-out: Plasma Concentration
[2] = dog, whole blood, Beagle, oral 10 mg/kg, read-out: Blood Concentration
[3] = dog, plasma, Beagle, oral gavage 10 mg/kg
[4] = dog, whole blood, Beagle, oral gavage 10 mg/kg
[5] = plasma, Beagle, oral gavage 10 mg/kg, 10 mg/kg
[6] = same dose level, beagle vs. mongrels

With `O=C(CC(F)(F)F)N1CC2(C1)OCc1cc(C3=NS[C@@](c4cc(Cl)c(F)c(Cl)c4)(C(F)(F)F)C3)ccc12` [C1 (S) enantiomer, (S)-1-[6-[5-(3,5-dichloro-4-fluoro-phenyl)-5-(trifluoromethyl)-4H-isothiazol-3-yl]spiro[1H-isobenzofuran-3,3′-azetidine]-1′-yl]-3,3,3-trifluoro-propan-1-one] the “Blood Concentration” value (1080 hr, Beagle, oral 10 mg/kg) was “BQL ^b”, the “concentration in plasma relative to blood concentration” value (after 240 hours) was “about twice the blood concentration” and the “concentrations in blood and plasma compared” value (at 48 hours) was “similar”. For the same compound, the “average half-life compared with the racemate” value (beagle PK study vs. racemate oral efficacy studies in mongrels) was “shorter than that of the racemate”, the Tmax (beagle, dog, plasma, po, 10 mg/kg, plasma, Beagle, oral gavage 10 mg/kg, read-out: Tmax) was 2 h and the CL/F (beagle, dog, plasma, po, 10 mg/kg, oral gavage 10 mg/kg) was 0.833 mL/min/kg. For the same compound, the Tmax (beagle, dog, whole blood, po, 10 mg/kg, whole blood, Beagle, oral gavage 10 mg/kg, read-out: Tmax) was 1.7 h, the CL/F (beagle, dog, whole blood, po, 10 mg/kg, oral gavage 10 mg/kg) was 1.12 mL/min/kg and the “bioconversion to the C1 (R) enantiomer in vivo” value (chiral HPLC chromatograms of all study samples, dog) was “No bioconversion was observed”. It also gave a concentration at 1080 hr (dog, in vivo, 1080 hr, Beagle, oral 10 mg/kg) of 15.7 ± 6.3 ng/mL, a concentration at 0.25 hr [1] of 291 ± 57 ng/mL and a concentration at 0.5 hr [1] of 1170 ± 250 ng/mL. For the same compound, the concentration at 1 hr [1] was 1920 ± 330 ng/mL, the concentration at 2 hr [1] was 2260 ± 170 ng/mL and the concentration at 4 hr [1] was 2010 ± 360 ng/mL. For the same compound, the concentration at 8 hr [1] was 1110 ± 70 ng/mL, the concentration at 24 hr [1] was 664 ± 112 ng/mL and the concentration at 48 hr [1] was 567 ± 95 ng/mL. It also gave a concentration at 72 hr [1] of 552 ± 65 ng/mL, a concentration at 120 hr [1] of 393 ± 67 ng/mL and a concentration at 168 hr [1] of 298 ± 39 ng/mL. For the same compound, the concentration at 240 hr [1] was 270 ± 19 ng/mL, the concentration at 336 hr [1] was 219 ± 24 ng/mL and the concentration at 408 hr [1] was 135 ± 12 ng/mL. It also gave a concentration at 504 hr [1] of 103 ± 15 ng/mL, a concentration at 600 hr [1] of 80.4 ± 11.3 ng/mL and a concentration at 672 hr [1] of 55.6 ± 12.2 ng/mL. The concentration at 768 hr [1] was 47 ± 11.9 ng/mL, the concentration at 840 hr [1] was 37.4 ± 8.2 ng/mL and the concentration at 936 hr [1] was 24.8 ± 6.4 ng/mL. The concentration at 1032 hr [1] was 18.8 ± 5.5 ng/mL, the concentration at 0.25 hr [2] was 412 ± 89 ng/mL and the concentration at 0.5 hr [2] was 1660 ± 380 ng/mL. The concentration at 1 hr [2] was 3210 ± 230 ng/mL, the concentration at 2 hr [2] was 3560 ± 570 ng/mL and the concentration at 4 hr [2] was 2990 ± 340 ng/mL. For the same compound, the concentration at 8 hr [2] was 1220 ± 170 ng/mL, the concentration at 24 hr [2] was 708 ± 162 ng/mL and the concentration at 48 hr [2] was 572 ± 128 ng/mL. The concentration at 72 hr [2] was 428 ± 71 ng/mL, the concentration at 120 hr [2] was 292 ± 56 ng/mL and the concentration at 168 hr [2] was 245 ± 47 ng/mL. It also gave a concentration at 240 hr [2] of 136 ± 20 ng/mL, a concentration at 336 hr [2] of 100 ± 6 ng/mL and a concentration at 408 hr [2] of 75.8 ± 11.2 ng/mL. For the same compound, the concentration at 504 hr [2] was 57.3 ± 8.5 ng/mL, the concentration at 600 hr [2] was 41.2 ± 3.7 ng/mL and the concentration at 672 hr [2] was 30.5 ± 5.1 ng/mL. It also gave a concentration at 768 hr [2] of 21.5 ± 4.2 ng/mL, a concentration at 840 hr [2] of 17.4 ± 4.8 ng/mL and a concentration at 936 hr [2] of 14.3 ± 3.4 ng/mL. It also gave a concentration at 1032 hr [2] of 13.8 ng/mL, a half-life [3] of 205 h and a Cmax (dog, plasma, Beagle, oral gavage 10 mg/kg, read-out: Cmax) of 2260 ng/mL. For the same compound, the AUC(0-t) [3] was 191 µg·h/mL, the AUC(0-inf) [3] was 196 µg·h/mL and the half-life [4] was 209 h. For the same compound, the Cmax (dog, whole blood, Beagle, oral gavage 10 mg/kg, read-out: Cmax) was 3650 ng/mL, the AUC(0-t) [4] was 144 ± 11 µg·h/mL and the AUC(0-inf) [4] was 148 µg·h/mL. For the same compound, the “blood concentrations compared with plasma concentrations” value (first few hours post-dose) was “significantly higher than the corresponding plasma concentrations”, the “affinity to red blood cells (RBC)” value (initial phase post-dose) was “higher initial affinity to red blood cells (RBC)” and the tlast (plasma, Beagle, oral gavage 10 mg/kg) was 1080 h. For the same compound, the Cl/F [5] was 0.84 ± 0.0467 mL/min/kg, the Cmax [5] was 2260 ± 170 ng/mL and the “NCA AUC0-last” value [5] was 191 ± 11 µg·h/mL. The “AUC compared with the racemate” value [6] was “lower compared to those of the racemate”, the “Cmax compared with the racemate” value [6] was “lower compared to those of the racemate” and the Tmax (whole blood, Beagle, oral gavage 10 mg/kg, 10 mg/kg) was 1.67 ± 0.58 h.
